Measured values: patent US3971779A, “7-[2-(5-Amino-1,3,4-thiadiazol-2-ylthio)acetamido]cephalosporins” (American Home Products Corporation, priority 1975, dated 1976)
Converted amounts (≈) assume the structure as drawn. Where two headings read alike, the source gives them in different places.

Legend:
Assay in all cases: agar serial dilution MIC
Format in all cases: cell-based
[1] = test system: Acinetobacter calcoaceticus 9957
Procedure: (§1) A stock solution of 7-[2-(4,5-dihydro-5-imino-1,3,4-thiadiazol-2-ylthio)acetamido]cephalosporanic acid as the hydrobromic acid addition salt containing 2,500 μg. of the active moiety is prepared in phosphate buffer. Two fold serial dilutions are prepared with phosphate buffer. One milliliter (ml.) quantities of each dilution are incorporated in 9 ml. seen agar in sterile Petri plates. The hardened surface is innoculated with test organisms using a Steers replicating device. The plates are incubated at 35° C. for 18 hours.
(§2) The test organisms are Bacillus subtilis (BA SU) 6633; Staphylococcus aureus (ST AU) 6538P, Smith CHP, and 3-180; Mycobacterium smegmatis (MY SM) 10143; Neisseria catarrhalis (NE CA) 8193; Pseudonomas aeruginosa (PS AE) 10145; Escherichia coli (ES CO) 9637, and 920; Escherichia intermedia (ES IN) 65-1; Salmonella paratyphi (SA PA) 11737; Enterobacter aerogenes (EN AE) 13048; Klebsiella pneumoniae (KL PN) 10031; Bordetella bronchiseptica (BO BR) 4617; Proteus vulgaris (PR VU) 6896; and Herellea species (HE SP) 9955. These organisms are grown for 18 hours in Brain heart infusion at 35° C. Prior to use the cultures are diluted 10 fold with the infusion, except in the case of Mycobacterium. The latter is grown in Emerson's broth for 5 days at 28° C. in shaker flasks and used undiluted.
(§3) Following the procedure of Example 2 but substituting the organisms listed below the same preparation of 7-[2-(4,5-dihydro-5-imino-1,3,4-thiadiazol-2-ylthio)acetamido]cephalosporanic acid (Compound A) as used in Example 3, a third sample of the same compound, prepared as described in Example 1 (Compound B) and 7-[2-(5-acetamido-1,3,4-thiadiazol-2-ylthio)acetamido]cephalosporanic acid (Compound C) are tested to obtain the results shown: […]

[2] = test system: Arizona arizonae 13314
Procedure: as §1, §2, §3

[3] = test system: Citrobacter diversus 27156; conditions: Citrobacter koseri, Example 4
Procedure: as §1, §2, §3

[4] = test system: Citrobacter freundii 8090; conditions: Example 4
Procedure: as §1, §2, §3

[5] = test system: Edwardsiella tarda 15947
Procedure: as §1, §2, §3

[6] = test system: Enterobacter agglomerans 27155
Procedure: as §1, §2, §3

[7] = test system: Enterobacter cloacae 13047; conditions: Example 4
Procedure: as §1, §2, §3

[8] = test system: Enterobacter havniae 11604; conditions: Example 4
Procedure: as §1, §2, §3

[9] = test system: Klebsiella ozaenae 11296
Procedure: as §1, §2, §3

[10] = test system: Klebsiella pneumoniae 13883
Procedure: as §1, §2, §3

[11] = test system: Klebsiella rhinoscleromatis 13884; conditions: Klebsiella pneumoniae, Example 4
Procedure: as §1, §2, §3

[12] = test system: Proteus mirabilis 9921; conditions: Example 4
Procedure: as §1, §2, §3

[13] = test system: Proteus rettgeri 9918; conditions: Providencia rettgeri, Example 4
Procedure: as §1, §2, §3

[14] = test system: Providencia alcalifaciens 9886; conditions: Example 4
Procedure: as §1, §2, §3

[15] = test system: Salmonella enteritidis 13076; conditions: Salmonella enterica, Example 4
Procedure: as §1, §2, §3

[16] = test system: Salmonella typhi 19430; conditions: Salmonella enterica
Procedure: as §1, §2, §3

[17] = test system: Serratia liquefaciens 27592; conditions: Example 4
Procedure: as §1, §2, §3

[18] = test system: Serratia marcescens 13880; conditions: Example 4
Procedure: as §1, §2, §3

[19] = test system: Serratia rubidae 27593; conditions: Example 4
Procedure: as §1, §2, §3

[20] = test system: Shigella boydii 9207; conditions: Example 4
Procedure: as §1, §2, §3

[21] = test system: Shigella flexneri 12025; conditions: Example 4
Procedure: as §1, §2, §3

[22] = test system: Shigella sonnei 11060; conditions: Example 4
Procedure: as §1, §2, §3

`CC(=O)OCC1=C(C(=O)O)N2C(=O)C(NC(=O)CSc3n[nH]c(=N)s3)C2SC1` (stereo not drawn) [7-[2-(4,5-Dihydro-5-Imino-1,3,4-Thiadiazol-2-ylthio)Acetamido]Cephalosporanic Acid] showed an MIC [1] of 7.81 µg/mL (≈ 17.5 µM), an MIC ([2]; Salmonella enterica, 13314, Example 4) of 1.95 µg/mL (≈ 4.38 µM) and an MIC ([2]; Salmonella enterica, 13314, Example 4, read-out: MIC) of 3.9 µg/mL (≈ 8.75 µM). The MIC [3] was 1.95 µg/mL (≈ 4.38 µM), the MIC [4] was > 250 µg/mL and the MIC ([5]; Edwardsiella tarda, 15947, Example 4) was 31.3 µg/mL (≈ 70.3 µM). For the same compound, the MIC ([5]; Edwardsiella tarda, 15947, Example 4, read-out: MIC) was 15.6 µg/mL (≈ 35 µM), the MIC ([6]; Pantoea agglomerans, 27155, Example 4) was 7.81 µg/mL (≈ 17.5 µM) and the MIC ([6]; Pantoea agglomerans, 27155, Example 4, read-out: MIC) was 15.6 µg/mL (≈ 35 µM). For the same compound, the MIC [7] was > 250 µg/mL, the MIC [8] was > 250 µg/mL and the MIC [9] was 1.95 µg/mL (≈ 4.38 µM). The MIC ([10]; Klebsiella pneumoniae, 13883, Example 4) was 7.81 µg/mL (≈ 17.5 µM), the MIC ([10]; Klebsiella pneumoniae, 13883, Example 4, read-out: MIC) was 15.6 µg/mL (≈ 35 µM) and the MIC [11] was > 250 µg/mL. The MIC [12] was 7.81 µg/mL (≈ 17.5 µM), the MIC [13] was 250 µg/mL (≈ 561 µM) and the MIC [14] was > 250 µg/mL. For the same compound, the MIC [15] was 1.95 µg/mL (≈ 4.38 µM), the MIC [16] was 1.95 µg/mL (≈ 4.38 µM) and the MIC [17] was > 250 µg/mL. The MIC [18] was > 250 µg/mL, the MIC [19] was > 250 µg/mL and the MIC [20] was 62.5 µg/mL (≈ 140 µM). It also gave an MIC ([21]; listed as A) of 31.3 µg/mL (≈ 70.3 µM), an MIC ([21]; listed as B) of 7.81 µg/mL (≈ 17.5 µM) and an MIC [22] of 62.5 µg/mL (≈ 140 µM).
